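Five compound concentrations were applied to cells in 96-well plates for 48 hours; endpoints were derived by simple linear interpolation of the resulting dose-response curve. TGI is the concentration that stops growth completely.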
What was measured:
Assay in all cases: growth of human tumour cells (NCI), 48 h
T-47D breast = test system: T-47D breast
SR leukemia = test system: SR leukemia
SN12C renal = test system: SN12C renal
DU-145 prostate = test system: DU-145 prostate
IGROV1 ovarian = test system: IGROV1 ovarian
MDA-MB-231 breast = test system: MDA-MB-231 breast
NCI-H460 lung = test system: NCI-H460 lung
SK-MEL-2 melanoma = test system: SK-MEL-2 melanoma
LOX IMVI melanoma = test system: LOX IMVI melanoma
U251 CNS = test system: U251 CNS
ACHN renal = test system: ACHN renal
HOP-92 NSCLC = test system: HOP-92 NSCLC
OVCAR-4 ovarian = test system: OVCAR-4 ovarian
NCI/ADR-RES ovarian = test system: NCI/ADR-RES ovarian
RPMI-8226 leukemia = test system: RPMI-8226 leukemia
M14 melanoma = test system: M14 melanoma
OVCAR-3 ovarian = test system: OVCAR-3 ovarian
EKVX NSCLC = test system: EKVX NSCLC
BT-549 breast = test system: BT-549 breast
K-562 leukemia = test system: K-562 leukemia
SF-295 CNS = test system: SF-295 CNS
HCT-15 colon = test system: HCT-15 colon
CAKI-1 renal = test system: CAKI-1 renal
OVCAR-8 ovarian = test system: OVCAR-8 ovarian
MOLT-4 leukemia = test system: MOLT-4 leukemia
SK-MEL-5 melanoma = test system: SK-MEL-5 melanoma
TK-10 renal = test system: TK-10 renal
PC-3 prostate = test system: PC-3 prostate
HCT-116 colon = test system: HCT-116 colon
HL-60(TB) leukemia = test system: HL-60(TB) leukemia
SNB-19 CNS = test system: SNB-19 CNS
SF-539 CNS = test system: SF-539 CNS
UO-31 renal = test system: UO-31 renal
MCF7 breast = test system: MCF7 breast
HCC-2998 colon = test system: HCC-2998 colon
OVCAR-5 ovarian = test system: OVCAR-5 ovarian
COLO 205 colon = test system: COLO 205 colon
SK-MEL-28 melanoma = test system: SK-MEL-28 melanoma
KM12 colon = test system: KM12 colon
786-0 renal = test system: 786-0 renal
SK-OV-3 ovarian = test system: SK-OV-3 ovarian
HOP-62 NSCLC = test system: HOP-62 NSCLC
SW-620 colon = test system: SW-620 colon
SF-268 CNS = test system: SF-268 CNS
A549 NSCLC = test system: A549 NSCLC
UACC-62 melanoma = test system: UACC-62 melanoma
HS 578T breast = test system: HS 578T breast
A498 renal = test system: A498 renal
MDA-MB-435 = test system: MDA-MB-435
UACC-257 melanoma = test system: UACC-257 melanoma
MDA-N = test system: MDA-N
CCRF-CEM leukemia = test system: CCRF-CEM leukemia
RXF 393 renal = test system: RXF 393 renal
HT29 colon = test system: HT29 colon
NCI-H23 lung = test system: NCI-H23 lung
MALME-3M melanoma = test system: MALME-3M melanoma
NCI-H226 lung = test system: NCI-H226 lung
SNB-75 CNS = test system: SNB-75 CNS

Molecule O=C1/C(=C/c2cccc([N+](=O)[O-])c2)N=C(c2ccccc2)N1c1nc2c(Cl)cc(Cl)cc2s1 has a TGI (T-47D breast) of 68.9 µM, a TGI (SR leukemia) of 57.9 µM and a TGI (SN12C renal) of 54.7 µM. It also gave a TGI (DU-145 prostate) of 70.1 µM, a TGI (IGROV1 ovarian) of 58.2 µM and a TGI (MDA-MB-231 breast) of over 100 µM. The TGI (NCI-H460 lung) was over 100 µM, the TGI (SK-MEL-2 melanoma) was 48 µM and the TGI (LOX IMVI melanoma) was 32.7 µM. It also gave a TGI (U251 CNS) of 37.2 µM, a TGI (ACHN renal) of 74.2 µM and a TGI (HOP-92 NSCLC) of 77.9 µM. The TGI (OVCAR-4 ovarian) was 71.8 µM, the TGI (NCI/ADR-RES ovarian) was 85.4 µM and the TGI (RPMI-8226 leukemia) was over 100 µM. It also gave a TGI (M14 melanoma) of 46.8 µM, a TGI (OVCAR-3 ovarian) of 39.1 µM and a TGI (EKVX NSCLC) of 53.3 µM. The TGI (BT-549 breast) was 94.6 µM, the TGI (K-562 leukemia) was over 100 µM and the TGI (SF-295 CNS) was over 100 µM. It also gave a TGI (HCT-15 colon) of over 100 µM, a TGI (CAKI-1 renal) of over 100 µM and a TGI (OVCAR-8 ovarian) of 49.5 µM. It also gave a TGI (MOLT-4 leukemia) of 71.8 µM, a TGI (SK-MEL-5 melanoma) of 33.5 µM and a TGI (TK-10 renal) of over 100 µM. For the same molecule, the TGI (PC-3 prostate) was 64.4 µM, the TGI (HCT-116 colon) was 37.4 µM and the TGI (HL-60(TB) leukemia) was 60.9 µM. The TGI (SNB-19 CNS) was 65.4 µM, the TGI (SF-539 CNS) was 48.1 µM and the TGI (UO-31 renal) was 49.6 µM. For the same molecule, the TGI (MCF7 breast) was 93.8 µM, the TGI (HCC-2998 colon) was 61.9 µM and the TGI (OVCAR-5 ovarian) was 87.9 µM. For the same molecule, the TGI (COLO 205 colon) was over 100 µM, the TGI (SK-MEL-28 melanoma) was over 100 µM and the TGI (KM12 colon) was 45 µM. The TGI (786-0 renal) was over 100 µM, the TGI (SK-OV-3 ovarian) was 85.7 µM and the TGI (HOP-62 NSCLC) was 45 µM. The TGI (SW-620 colon) was 73.1 µM, the TGI (SF-268 CNS) was 78.1 µM and the TGI (A549 NSCLC) was 52.2 µM. It also gave a TGI (UACC-62 melanoma) of over 100 µM, a TGI (HS 578T breast) of 73.6 µM and a TGI (A498 renal) of 57.8 µM. It also gave a TGI (MDA-MB-435) of 46 µM, a TGI (UACC-257 melanoma) of over 100 µM and a TGI (MDA-N) of 39.2 µM. For the same molecule, the TGI (CCRF-CEM leukemia) was 23.5 µM, the TGI (RXF 393 renal) was 55 µM and the TGI (HT29 colon) was 40 µM.

CCOc1ccc(N=NC2C(=O)N(C(=O)CC(=O)Nc3ccc(C)cc3)N=C2C)cc1 (stereo not drawn) was tested, and the TGI (T-47D breast) was over 100 µM, the TGI (SR leukemia) was over 100 µM and the TGI (SN12C renal) was over 100 µM. It also gave a TGI (DU-145 prostate) of over 100 µM, a TGI (IGROV1 ovarian) of over 100 µM and a TGI (MDA-MB-231 breast) of 35.8 µM. It also gave a TGI (NCI-H460 lung) of 43.8 µM, a TGI (SK-MEL-2 melanoma) of over 100 µM and a TGI (LOX IMVI melanoma) of 27.7 µM. It also gave a TGI (U251 CNS) of 32.2 µM, a TGI (ACHN renal) of over 100 µM and a TGI (HOP-92 NSCLC) of 39.9 µM. For the same molecule, the TGI (OVCAR-4 ovarian) was 95.7 µM, the TGI (NCI/ADR-RES ovarian) was 79.2 µM and the TGI (M14 melanoma) was over 100 µM. The TGI (OVCAR-3 ovarian) was over 100 µM, the TGI (NCI-H23 lung) was over 100 µM and the TGI (EKVX NSCLC) was 40.9 µM. For the same molecule, the TGI (BT-549 breast) was over 100 µM, the TGI (SF-295 CNS) was 49.4 µM and the TGI (MALME-3M melanoma) was over 100 µM. For the same molecule, the TGI (HCT-15 colon) was over 100 µM, the TGI (CAKI-1 renal) was over 100 µM and the TGI (OVCAR-8 ovarian) was 31.2 µM. For the same molecule, the TGI (MOLT-4 leukemia) was over 100 µM, the TGI (SK-MEL-5 melanoma) was over 100 µM and the TGI (TK-10 renal) was 93.2 µM. For the same molecule, the TGI (PC-3 prostate) was over 100 µM, the TGI (HCT-116 colon) was 25.8 µM and the TGI (NCI-H226 lung) was 88.4 µM. The TGI (HL-60(TB) leukemia) was over 100 µM, the TGI (SNB-19 CNS) was 51 µM and the TGI (SF-539 CNS) was 36.5 µM. It also gave a TGI (UO-31 renal) of 78.7 µM, a TGI (MCF7 breast) of over 100 µM and a TGI (HCC-2998 colon) of over 100 µM. The TGI (OVCAR-5 ovarian) was over 100 µM, the TGI (COLO 205 colon) was over 100 µM and the TGI (SK-MEL-28 melanoma) was over 100 µM. For the same molecule, the TGI (KM12 colon) was over 100 µM, the TGI (786-0 renal) was 29.5 µM and the TGI (HOP-62 NSCLC) was 34.3 µM. The TGI (SW-620 colon) was over 100 µM, the TGI (SF-268 CNS) was 75.2 µM and the TGI (A549 NSCLC) was over 100 µM. It also gave a TGI (UACC-62 melanoma) of 52.6 µM, a TGI (HS 578T breast) of 40.1 µM and a TGI (A498 renal) of 52.5 µM. For the same molecule, the TGI (MDA-MB-435) was 10.9 µM, the TGI (UACC-257 melanoma) was over 100 µM and the TGI (SNB-75 CNS) was 23.2 µM. For the same molecule, the TGI (MDA-N) was 13.9 µM, the TGI (CCRF-CEM leukemia) was over 100 µM and the TGI (HT29 colon) was over 100 µM.

CC1C2C=CC1C(c1c3ccc(=O)c(O)c-3oc3c(O)c(O)ccc13)C2C(=O)O (stereo not drawn) gave a TGI (T-47D breast) of over 100 µM, a TGI (SR leukemia) of over 100 µM and a TGI (SN12C renal) of 51.1 µM. It also gave a TGI (DU-145 prostate) of over 100 µM, a TGI (IGROV1 ovarian) of over 100 µM and a TGI (MDA-MB-231 breast) of over 100 µM. The TGI (NCI-H460 lung) was over 100 µM, the TGI (SK-MEL-2 melanoma) was over 100 µM and the TGI (LOX IMVI melanoma) was 49.1 µM. It also gave a TGI (U251 CNS) of over 100 µM, a TGI (ACHN renal) of over 100 µM and a TGI (HOP-92 NSCLC) of over 100 µM. The TGI (OVCAR-4 ovarian) was over 100 µM, the TGI (NCI/ADR-RES ovarian) was over 100 µM and the TGI (RPMI-8226 leukemia) was 59.5 µM. The TGI (M14 melanoma) was over 100 µM, the TGI (OVCAR-3 ovarian) was over 100 µM and the TGI (NCI-H23 lung) was over 100 µM. The TGI (EKVX NSCLC) was over 100 µM, the TGI (BT-549 breast) was over 100 µM and the TGI (K-562 leukemia) was 45.8 µM. The TGI (SF-295 CNS) was over 100 µM, the TGI (HCT-15 colon) was over 100 µM and the TGI (CAKI-1 renal) was over 100 µM. The TGI (OVCAR-8 ovarian) was over 100 µM, the TGI (MOLT-4 leukemia) was 56.4 µM and the TGI (SK-MEL-5 melanoma) was over 100 µM. For the same molecule, the TGI (TK-10 renal) was over 100 µM, the TGI (PC-3 prostate) was over 100 µM and the TGI (HCT-116 colon) was 69.7 µM. It also gave a TGI (NCI-H226 lung) of 86.5 µM, a TGI (HL-60(TB) leukemia) of over 100 µM and a TGI (SNB-19 CNS) of over 100 µM. It also gave a TGI (UO-31 renal) of over 100 µM, a TGI (MCF7 breast) of 40.8 µM and a TGI (HCC-2998 colon) of over 100 µM. The TGI (OVCAR-5 ovarian) was over 100 µM, the TGI (COLO 205 colon) was over 100 µM and the TGI (SK-MEL-28 melanoma) was over 100 µM. For the same molecule, the TGI (KM12 colon) was over 100 µM, the TGI (786-0 renal) was over 100 µM and the TGI (SK-OV-3 ovarian) was over 100 µM. The TGI (HOP-62 NSCLC) was over 100 µM, the TGI (SW-620 colon) was over 100 µM and the TGI (SF-268 CNS) was over 100 µM. For the same molecule, the TGI (A549 NSCLC) was over 100 µM, the TGI (UACC-62 melanoma) was over 100 µM and the TGI (HS 578T breast) was over 100 µM. It also gave a TGI (A498 renal) of over 100 µM, a TGI (MDA-MB-435) of 36.2 µM and a TGI (UACC-257 melanoma) of over 100 µM. It also gave a TGI (MDA-N) of 45.9 µM, a TGI (CCRF-CEM leukemia) of 7.38 µM and a TGI (RXF 393 renal) of over 100 µM. The TGI (HT29 colon) was over 100 µM.
